Values quoted from earlier work in patent US20240216394A1, “GOLEXANOLONE FOR USE IN THE TREATMENT OF FATIGUE OR COGNITIVE IMPAIRMENT IN LIVER DISEASE PATIENTS” (Umecrine Cognition AB, priority 2021, published 2024).

Experiments:
PBC-related fatigue = settings: patients suffering from PBC-related fatigue
[1] = test system: rats following bile duct ligation (BDL)

For Rituximab, which “Benefit in PBC-related fatigue” value (PBC-related fatigue) is on record?
The value was “neither have proven beneficial”.

For `NC(=O)C[S+]([O-])C(c1ccccc1)c1ccccc1` (stereo not shown) [Modafinil], which “Benefit in PBC-related fatigue” value (PBC-related fatigue) is on record?
The value was “neither have proven beneficial”.

For `CNCCC(Oc1ccc(C(F)(F)F)cc1)c1ccccc1` (stereo not shown) [Fluoxetine], which “Benefit in PBC-related fatigue” value (PBC-related fatigue) is on record?
Its value is “neither have proven beneficial”.

Which “Effect on whole body fatigue” value [1] does the source give for dehydroepiandrosterone sulphate [DHEAS] here?
The value was “positive effect”.
